From US6706740B2, “Fungicidal heterocyclic aromatic amides and their compositions, methods of use and preparation” (Dow AgroSciences LLC, priority 1999, dated 2004)
Like-named read-outs stand apart in the source and are kept apart here.

Columns and labels:
[1] = system: Magnaporthe grisea (Pyricularia oryzae—PYRIOR); test: microbe, parasite or virus in culture; assay type: cell-based; details: Pyricularia oryzae, read-out: PYRIOR in vitro Growth Inhibition
[2] = system: Rhizoctonia solani (RHIZSO); test: microbe, parasite or virus in culture; assay type: cell-based; details: Rhizoctonia solani, read-out: RHIZSO in vitro Growth Inhibition
[3] = system: Mycosphaerella graminicola (Septoria tritici—SEPTTR); test: In vitro fungal growth inhibition, Mycosphaerella graminicola (SEPTTR); assay type: cell-based; details: Zymoseptoria tritici, read-out: SEPTTR in vitro Growth Inhibition
[4] = system: Stagonospora nodorum (Leptosphaeria nodorum—LEPTNO); test: In vitro fungal growth inhibition, Stagonospora nodorum (LEPTNO); assay type: cell-based; details: Leptosphaeria, read-out: LEPTNO in vitro Growth Inhibition
[5] = system: Ustilago maydis (USTIMA); test: microbe, parasite or virus in culture; assay type: cell-based; details: Mycosarcoma maydis, read-out: USTIMA in vitro Growth Inhibition
[6] = system: Phytophthora infestans (PHYTIN); test: microbe, parasite or virus in culture; assay type: cell-based; details: Phytophthora infestans, read-out: PHYTIN in vitro Growth Inhibition
[7] = system: Phytophthora infestans—PHYTIN; test: whole plant or invertebrate; assay type: in vivo; details: Phytophthora, in Solanum lycopersicum, 24 h, read-out: PHYTIN in vivo 1 Day Protectant
[8] = system: Puccinia recondita—PUCCRT; test: Brown Rust of Wheat, in vivo whole plant, 24 Hour Protectant
[9] = system: Erysiphe graminis—ERYSGT; test: Powdery Mildew of Wheat, in vivo whole plant, 24 Hour Protectant
[10] = system: Septoria tritici—SEPTTR; test: Leaf Blotch of Wheat, in vivo whole plant, 24 Hour Protectant
[11] = system: Leptosphaeria nodorum—LEPTNO; test: Glume Blotch of Wheat, in vivo whole plant, 24 Hour Protectant
[12] = Puccinia; 100 ppm spray, wheat, 24 hour protectant; control of fungal infection vs untreated plants; read-out: PUCCRT in vivo 1 Day Protectant
[13] = Erysiphe; 100 ppm spray, wheat, 24 hour protectant; control of fungal infection vs untreated plants; read-out: ERYSGT in vivo 1 Day Protectant
[14] = Zymoseptoria tritici, 24 h, 100 ppm spray, wheat, 24 hour protectant; control of fungal infection vs untreated plants; read-out: SEPTTR in vivo 1 Day Protectant
[15] = Leptosphaeria; 100 ppm spray, wheat, 24 hour protectant; control of fungal infection vs untreated plants; read-out: LEPTNO in vivo 1 Day Protectant
[16] = Puccinia; 100 ppm spray, 24 hour protectant, wheat; control of fungal infection vs untreated plants; read-out: PUCCRT in vivo 1 Day Protectant
[17] = Erysiphe; 100 ppm spray, 24 hour protectant, wheat; control of fungal infection vs untreated plants; read-out: ERYSGT in vivo 1 Day Protectant
[18] = Leptosphaeria; 100 ppm spray, 24 hour protectant, wheat; control of fungal infection vs untreated plants; read-out: LEPTNO in vivo 1 Day Protectant

Structure (SMILES)	inhibition at 25 ppm [1] [%]	inhibition at 25 ppm [2] [%]	inhibition at 25 ppm ([3]; 25 ppm in growth medium) [%]	inhibition at 25 ppm ([4]; 25 ppm in growth medium) [%]	inhibition at 25 ppm [5] [%]	inhibition at 25 ppm [6] [%]	pest or weed control at 100 ppm [7] [%]	pest or weed control at 100 ppm [8, 12] [%]	pest or weed control at 100 ppm [9, 13] [%]	pest or weed control at 100 ppm [10, 14] [%]	pest or weed control at 100 ppm [11, 15] [%]	inhibition at 25 ppm [3] [%]	inhibition at 25 ppm [4] [%]	pest or weed control at 100 ppm [8, 16] [%]	pest or weed control at 100 ppm [9, 17] [%]	SEPTTR in vivo 1 Day Protectant ([10]; 100 ppm spray, 24 hour protectant, wheat; control of fungal infection vs untreated plants)	pest or weed control at 100 ppm [11, 18] [%]	PUCCRT in vivo 1 Day Protectant ([8]; 100 ppm spray, wheat, 24 hour protectant; control of fungal infection vs untreated plants)	pest or weed control at 100 ppm ([10]; Zymoseptoria tritici, 24 h, 100 ppm spray, 24 hour protectant, wheat; control of fungal infection vs untreated plants; read-out: SEPTTR in vivo 1 Day Protectant) [%]
COc1cccc(Oc2cccc(NC(=O)c3nccc(OC)c3O)c2)c1 [Compound 431]	< 80	< 80	> 80	> 80	< 80	< 80	< 25	< 25	< 25	25 to 74	< 25								
COc1ccnc(C(=O)NC2CC(=O)OCC(C)COC2=O)c1O (stereo not shown) [Compound 378]	< 80	< 80	< 80	< 80	< 80	< 80	< 25	< 25	< 25	< 25	25 to 74								
COc1cccc(Oc2ccccc2NC(=O)c2nccc(OC)c2O)c1 [Compound 428]	> 80	< 80	> 80	< 80	< 80	< 80	< 25	< 25	< 25	< 25	< 25								
COc1ccnc(C(=O)N[C@@H]2C[C@@H](O[Si](C)(C)C(C)(C)C)O[C@@H](C)[C@@H]2OC)c1O [Compound 326]	< 80	< 80			< 80	< 80	< 25					< 80	< 80	< 25	< 25	+ +	25 to 74		
COc1ccnc(C(=O)NC(COC(=O)CC(C)O[Si](C)(C)C(C)(C)C)C(=O)OC(C)C)c1O (stereo not shown) [Compound 354]	< 80	< 80			< 80	< 80	< 25		25 to 74	< 25	< 25	< 80	< 80					+ +	
COc1ccnc(C(=O)Nc2ccccc2Oc2ccc(C#N)cc2)c1O [Compound 419]	< 80	< 80	< 80	< 80	< 80	< 80	25 to 74	< 25	< 25	< 25	< 25								
COc1ccnc(C(=O)N[C@H]2O[C@@H](C)[C@@H](OC(C)=O)[C@@H](OC(C)=O)[C@@H]2OC(C)=O)c1O [Compound 333]	< 80	< 80	< 80	< 80	< 80	< 80	< 25	25 to 74	< 25	25 to 74	25 to 74								
COc1ccnc(C(=O)NC(C)c2ccc(C(F)(F)F)cc2)c1O (stereo not shown) [Compound 247]	< 80	< 80	> 80	> 80	< 80	< 80	< 25							< 25	< 25		25 to 74		25 to 74
